Data from BindingDB's records for doi:10.7270/Q2T72HDT (Dupont Pharmaceuticals, 1995).

Key:
[1] = biological target: T1, Sterol O-acyltransferase 1 (Mus musculus, UniProt Q61263); assay: ChEBML_28026
T1 sequence (Q61263 whole entry): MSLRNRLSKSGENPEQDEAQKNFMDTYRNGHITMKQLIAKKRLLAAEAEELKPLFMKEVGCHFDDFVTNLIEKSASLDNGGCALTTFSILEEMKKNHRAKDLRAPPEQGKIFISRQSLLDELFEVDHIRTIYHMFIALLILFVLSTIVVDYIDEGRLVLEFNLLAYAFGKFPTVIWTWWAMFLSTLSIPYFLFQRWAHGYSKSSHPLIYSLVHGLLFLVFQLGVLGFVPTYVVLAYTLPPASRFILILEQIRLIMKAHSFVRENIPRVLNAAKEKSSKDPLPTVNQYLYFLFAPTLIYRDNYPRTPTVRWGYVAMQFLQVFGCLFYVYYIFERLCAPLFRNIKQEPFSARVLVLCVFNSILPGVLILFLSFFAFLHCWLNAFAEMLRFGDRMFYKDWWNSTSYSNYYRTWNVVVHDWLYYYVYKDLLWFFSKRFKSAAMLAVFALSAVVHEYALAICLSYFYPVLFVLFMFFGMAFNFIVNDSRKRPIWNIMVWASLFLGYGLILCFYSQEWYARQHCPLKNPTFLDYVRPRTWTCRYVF
Description: Inhibition of Acyl coenzyme A:cholesterol acyltransferase (ACAT) in J774 Macrophage cell culture

[2] = biological target: T2, Sterol O-acyltransferase 1 (Rattus norvegicus, UniProt O70536); assay: ChEBML_28360
T2 sequence (O70536 whole entry): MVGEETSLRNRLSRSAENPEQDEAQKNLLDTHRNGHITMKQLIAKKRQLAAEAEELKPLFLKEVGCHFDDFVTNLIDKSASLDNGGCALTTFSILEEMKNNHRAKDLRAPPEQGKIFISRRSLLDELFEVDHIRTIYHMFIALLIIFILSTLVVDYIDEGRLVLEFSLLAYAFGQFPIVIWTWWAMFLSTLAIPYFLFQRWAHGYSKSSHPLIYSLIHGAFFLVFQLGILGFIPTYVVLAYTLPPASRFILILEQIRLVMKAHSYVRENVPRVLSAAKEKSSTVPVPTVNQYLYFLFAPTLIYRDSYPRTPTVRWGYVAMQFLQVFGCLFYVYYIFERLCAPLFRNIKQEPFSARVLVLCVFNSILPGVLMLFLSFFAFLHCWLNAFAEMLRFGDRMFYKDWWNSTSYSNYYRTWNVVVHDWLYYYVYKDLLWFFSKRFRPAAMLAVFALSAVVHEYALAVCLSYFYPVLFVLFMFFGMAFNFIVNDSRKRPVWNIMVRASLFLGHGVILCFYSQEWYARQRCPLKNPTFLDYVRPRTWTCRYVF
Description: In vitro inhibition of Acyl coenzyme A:cholesterol acyltransferase (ACAT) in rat hepatic microsomes

Compound	IC50 [1] [nM]	IC50 [2] [nM]
c1ccc(-c2nc(SCCCSCCCSc3nc(-c4ccccc4)c(-c4ccccc4)[nH]3)[nH]c2-c2ccccc2)cc1	7960	–
O=C(Nc1ccc(F)cc1F)N(CCCCCSc1nc(-c2ccccc2)c(-c2ccccc2)[nH]1)CCc1ccccn1	2440	80
COc1ccc(-c2nc(SCCOCCSc3nc(-c4ccccc4)c(-c4ccccc4)[nH]3)[nH]c2-c2ccc(OC)cc2)cc1	3870	–
c1ccc(-c2nc(SCCOCCSc3nc(-c4ccccc4)c(-c4ccccc4)[nH]3)[nH]c2-c2ccccc2)cc1	6550	26
CC(C)NC(=O)N(CCCCCSc1nc(-c2ccccc2)c(-c2ccccc2)[nH]1)CCc1ccccn1	3050	190
Cc1nc2ccccc2n1CCCSCCCSc1nc(-c2ccccc2)c(-c2ccccc2)[nH]1	7270	250
c1ccc(-c2nc(SCCCCCOCCc3ccccn3)[nH]c2-c2ccccc2)cc1	3920	–
COc1ccc(-c2nc(SCCCCCN(CCc3nn[nH]n3)C(=O)NC(C)C)[nH]c2-c2ccc(OC)cc2)cc1	5500	–
COc1ccc(-c2nc(SCCCCCN(CCCn3ccnc3)C(=O)NC(C)C)[nH]c2-c2ccc(OC)cc2)cc1	5500	–
c1ccc(-c2nc(SCCCCCSCc3ccccn3)[nH]c2-c2ccccc2)cc1	3930	310
CN(C)c1ccc(-c2nc(SCCOCCSc3[nH]cnc4ncnc3-4)[nH]c2-c2ccc(N(C)C)cc2)cc1	2990	2040
COc1ccc(-c2nc(SCCOCCn3c(C)nc4ccccc43)[nH]c2-c2ccc(OC)cc2)cc1	3430	–

Now those with a lower IC50 [1], led by results:

IC50 [1] [nM]	IC50 [2] [nM]	Compound
940	100	CC(C)NC(=O)N(CCCCCSc1nc(-c2ccccc2)c(-c2ccccc2)[nH]1)c1ccccn1
790	660	O=C(Nc1ccc(F)cc1F)N(CCCCCSc1nc(-c2ccccc2)c(-c2ccccc2)[nH]1)c1ccccn1
690	300	COc1ccc(-c2nc(SCCCCCN(CCc3ccccn3)C(=O)Nc3ccc(F)cc3F)[nH]c2-c2ccc(OC)cc2)cc1
450	3	CN(C)c1ccc(-c2nc(SCCCCCN(CCCCCSc3nc(-c4ccccc4)c(-c4ccccc4)[nH]3)C(=O)Nc3ccc(F)cc3F)[nH]c2-c2ccc(N(C)C)cc2)cc1
370	134	CN(C)c1ccc(-c2nc(SCCOCCSc3nc(-c4ccc(N(C)C)cc4)c(-c4ccc(N(C)C)cc4)[nH]3)[nH]c2-c2ccc(N(C)C)cc2)cc1
190	–	COc1ccc(-c2nc(SCCCCCN(Cc3ccccn3)C(=O)Nc3ccc(F)cc3F)[nH]c2-c2ccc(OC)cc2)cc1
100	90	COc1ccc(-c2nc(SCCCCCN(CCCCCSc3nc(-c4ccccc4)c(-c4ccccc4)[nH]3)C(=O)NC(C)C)[nH]c2-c2ccc(OC)cc2)cc1
90	260	COc1ccc(-c2nc(SCCCCCN(CCc3ccccn3)C(=O)NC(C)C)[nH]c2-c2ccc(OC)cc2)cc1
60	30	CC(C)NC(=O)N(CCCCCSc1nc(-c2ccccc2)c(-c2ccccc2)[nH]1)CCCCCSc1nc(-c2ccc(N(C)C)cc2)c(-c2ccc(N(C)C)cc2)[nH]1
60	6230	COc1ccc(-c2nc(SCCCCCN(Cc3ccccn3)C(=O)NC(C)C)[nH]c2-c2ccc(OC)cc2)cc1
10	90	COc1ccc(-c2nc(SCCCCCN(CCCCCSc3nc(-c4ccc(OC)cc4)c(-c4ccc(OC)cc4)[nH]3)C(=O)NC(C)C)[nH]c2-c2ccc(OC)cc2)cc1
